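96-well plates; 48 h exposure; 5 concentrations. Endpoints by linear interpolation between flanking doses. Not reached: highest tested concentration assigned. Here, GI50 denotes the concentration required for 50% inhibition of growth. TGI is the concentration that stops growth completely.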
Columns and labels:
Assay in all cases: inhibition of tumour cell growth, NCI panel, 48 h
SF-268 CNS = test system: SF-268 CNS
SF-295 CNS = test system: SF-295 CNS
786-0 renal = test system: 786-0 renal
RPMI-8226 leukemia = test system: RPMI-8226 leukemia
SR leukemia = test system: SR leukemia
COLO 205 colon = test system: COLO 205 colon
SK-MEL-5 melanoma = test system: SK-MEL-5 melanoma
SNB-75 CNS = test system: SNB-75 CNS
OVCAR-5 ovarian = test system: OVCAR-5 ovarian
KM12 colon = test system: KM12 colon

## COc1ccc(CN(C)c2ccc(CO)c(Cl)c2)cc1
SF-268 CNS
  GI50: 33.4 µM
  TGI: > 100 µM
SF-295 CNS
  GI50: 3.35 µM
  TGI: > 100 µM
786-0 renal
  GI50: 13.7 µM
  TGI: > 66.4 µM
RPMI-8226 leukemia
  GI50: 9.71 µM
  TGI: > 65.4 µM
SR leukemia
  GI50: 27 µM
  TGI: > 100 µM
COLO 205 colon
  GI50: 3.55 µM
  TGI: 17.5 µM
SK-MEL-5 melanoma
  GI50: 8.24 µM
  TGI: 21.9 µM
SNB-75 CNS
  GI50: 23.5 µM
  TGI: > 90.7 µM
OVCAR-5 ovarian
  GI50: 0.439 µM
  TGI: 2.9 µM
KM12 colon
  GI50: 24.6 µM
  TGI: > 92.8 µM

## O=C(/C=C/c1ccc([N+](=O)[O-])o1)N1CCN(Cc2ccccc2)CC1
SF-268 CNS
  TGI: 29.5 µM
SF-295 CNS
  TGI: 29.2 µM
786-0 renal
  TGI: 26.1 µM
RPMI-8226 leukemia
  TGI: 32.3 µM
SR leukemia
  TGI: 38.7 µM
SK-MEL-5 melanoma
  TGI: 22.4 µM
SNB-75 CNS
  TGI: 30.4 µM
OVCAR-5 ovarian
  TGI: 31.1 µM
KM12 colon
  TGI: 27.1 µM

## O=C1c2ccccc2-c2c1c1ccccc1c(=O)n2CCCNCCCn1ccnc1
SF-268 CNS
  GI50: 3.12 µM
  TGI: 23.2 µM
SF-295 CNS
  GI50: 0.419 µM
  TGI: 1.99 µM
786-0 renal
  GI50: 0.352 µM
  TGI: 2.24 µM
RPMI-8226 leukemia
  GI50: 0.195 µM
  TGI: 1.02 µM
COLO 205 colon
  GI50: 2.13 µM
  TGI: 13.2 µM
SK-MEL-5 melanoma
  GI50: 0.379 µM
  TGI: 1.68 µM
SNB-75 CNS
  GI50: 2.61 µM
  TGI: 9.84 µM
OVCAR-5 ovarian
  GI50: 1.55 µM
  TGI: 4.93 µM
KM12 colon
  GI50: 0.593 µM
  TGI: 2.41 µM

## COc1ccc(-c2onc(-c3ccc([N+](=O)[O-])cc3)c2C2=NCCN2)cc1
SF-268 CNS
  TGI: > 100 µM
SF-295 CNS
  TGI: > 100 µM
786-0 renal
  TGI: 43 µM
RPMI-8226 leukemia
  TGI: > 100 µM
SR leukemia
  TGI: > 100 µM
COLO 205 colon
  TGI: > 100 µM
SK-MEL-5 melanoma
  TGI: > 100 µM
SNB-75 CNS
  TGI: 44 µM
OVCAR-5 ovarian
  TGI: > 100 µM
KM12 colon
  TGI: > 100 µM

## CCNC(=O)CCN(C(=O)O)S(=O)(=O)c1ccc(NC(=O)c2ccccc2)cc1
SF-268 CNS
  TGI: > 100 µM
SF-295 CNS
  TGI: > 100 µM
786-0 renal
  TGI: 28.3 µM
RPMI-8226 leukemia
  TGI: > 100 µM
SR leukemia
  TGI: > 100 µM
COLO 205 colon
  TGI: > 100 µM
SK-MEL-5 melanoma
  TGI: > 100 µM
SNB-75 CNS
  TGI: > 100 µM
OVCAR-5 ovarian
  TGI: > 100 µM
KM12 colon
  TGI: > 100 µM

## COc1cc(OC)c(/C=C/S(=O)(=O)Cc2cnc(OC)c(N)c2)c(OC)c1
SF-268 CNS
  GI50: < 0.0328 µM
  TGI: > 100 µM
SF-295 CNS
  GI50: < 0.0133 µM
  TGI: > 100 µM
786-0 renal
  GI50: < 0.031 µM
  TGI: > 100 µM
RPMI-8226 leukemia
  GI50: < 0.0206 µM
  TGI: > 100 µM
SR leukemia
  GI50: < 0.0143 µM
  TGI: > 100 µM
COLO 205 colon
  GI50: < 0.0169 µM
  TGI: < 0.0322 µM
SK-MEL-5 melanoma
  GI50: < 0.014 µM
  TGI: 0.721 µM
OVCAR-5 ovarian
  GI50: < 0.0482 µM
  TGI: > 100 µM
KM12 colon
  GI50: < 0.0157 µM
  TGI: > 100 µM

## COc1ccc(N2C(=O)CC(Cl)C2=O)cc1 (centres undefined)
SF-268 CNS
  TGI: > 100 µM
786-0 renal
  TGI: 32 µM
RPMI-8226 leukemia
  TGI: 37.2 µM
COLO 205 colon
  TGI: 30 µM
SK-MEL-5 melanoma
  TGI: > 100 µM
SNB-75 CNS
  TGI: > 100 µM
OVCAR-5 ovarian
  TGI: 34.1 µM

## O=[N+]([O-])c1cccc(C2N3CCCCC3[C@@H]3c4[nH]c5ccccc5c4CCN23)c1 (some centres undefined)
SF-268 CNS
  TGI: 27.4 µM
SF-295 CNS
  TGI: 31.4 µM
786-0 renal
  TGI: 43.3 µM
RPMI-8226 leukemia
  TGI: > 100 µM
COLO 205 colon
  TGI: 32.8 µM
SK-MEL-5 melanoma
  TGI: 27.2 µM
OVCAR-5 ovarian
  TGI: 32.7 µM

## Nc1c(C(=O)c2ccc(Cl)cc2)sc(Nc2ccccc2)c1-c1nc2ccccc2s1
SF-268 CNS
  GI50: 1.44 µM
  TGI: > 100 µM
SF-295 CNS
  GI50: 2.18 µM
  TGI: 10.8 µM
786-0 renal
  GI50: 2.8 µM
  TGI: 8.18 µM
RPMI-8226 leukemia
  GI50: 6.05 µM
  TGI: > 100 µM
SR leukemia
  GI50: 0.857 µM
  TGI: > 100 µM
SK-MEL-5 melanoma
  GI50: 16.6 µM
  TGI: > 100 µM
SNB-75 CNS
  GI50: 1.89 µM
  TGI: 9.5 µM
OVCAR-5 ovarian
  GI50: > 100 µM
  TGI: > 100 µM
KM12 colon
  GI50: 0.812 µM
  TGI: > 100 µM

## CC(C)c1ccc(C(=O)Nc2nc3ccc(O)cc3s2)cc1
SF-268 CNS
  GI50: 4.06 µM
  TGI: > 100 µM
786-0 renal
  GI50: 0.866 µM
  TGI: 6.09 µM
RPMI-8226 leukemia
  GI50: 2.74 µM
  TGI: > 100 µM
SR leukemia
  GI50: 0.715 µM
  TGI: 68.7 µM
COLO 205 colon
  GI50: 3.58 µM
  TGI: > 100 µM
SK-MEL-5 melanoma
  GI50: 0.535 µM
  TGI: > 100 µM
SNB-75 CNS
  GI50: 9.18 µM
  TGI: 73.2 µM
OVCAR-5 ovarian
  GI50: 7.68 µM
  TGI: > 100 µM
KM12 colon
  GI50: 0.262 µM
  TGI: > 100 µM

## COC(=O)c1s/c(=N\C(=S)N(C)C)n(-c2ccccc2)c1C(=O)OC
SF-268 CNS
  TGI: > 100 µM
SF-295 CNS
  TGI: > 100 µM
786-0 renal
  TGI: > 100 µM
RPMI-8226 leukemia
  TGI: > 100 µM
COLO 205 colon
  TGI: > 100 µM
SK-MEL-5 melanoma
  TGI: > 100 µM
SNB-75 CNS
  TGI: > 100 µM
OVCAR-5 ovarian
  TGI: > 100 µM
KM12 colon
  TGI: > 100 µM

## COc1cc(/C=C(\C#N)C(=O)c2ccccc2)ccc1OCc1ccccc1
SF-295 CNS
  TGI: > 100 µM
786-0 renal
  TGI: > 100 µM
RPMI-8226 leukemia
  TGI: > 100 µM
SR leukemia
  TGI: > 100 µM
COLO 205 colon
  TGI: > 100 µM
SK-MEL-5 melanoma
  TGI: > 100 µM
OVCAR-5 ovarian
  TGI: > 100 µM
KM12 colon
  TGI: > 100 µM

## CCOC(=O)c1cc(C#N)c(=O)n(/N=C(\C)c2ccncc2)c1O
SF-268 CNS
  GI50: > 100 µM
  TGI: > 100 µM
SF-295 CNS
  GI50: > 100 µM
  TGI: > 100 µM
786-0 renal
  GI50: > 100 µM
  TGI: > 100 µM
RPMI-8226 leukemia
  GI50: > 100 µM
  TGI: > 100 µM
SR leukemia
  GI50: > 100 µM
  TGI: > 100 µM
COLO 205 colon
  GI50: > 100 µM
  TGI: > 100 µM
SK-MEL-5 melanoma
  GI50: > 100 µM
  TGI: > 100 µM
OVCAR-5 ovarian
  GI50: > 100 µM
  TGI: > 100 µM
KM12 colon
  GI50: > 100 µM
  TGI: > 100 µM

## Cc1[nH]c2ccccc2c1C1Cc2ccccc2N1C(=O)/C=C\C(=O)O (centres undefined)
SF-268 CNS
  TGI: 68.4 µM
SF-295 CNS
  TGI: 99.4 µM
786-0 renal
  TGI: > 100 µM
SR leukemia
  TGI: 85.7 µM
COLO 205 colon
  TGI: > 100 µM
SK-MEL-5 melanoma
  TGI: 88.3 µM
SNB-75 CNS
  TGI: > 100 µM
OVCAR-5 ovarian
  TGI: > 100 µM
KM12 colon
  TGI: > 100 µM

## NNC(=O)/C(=C/c1ccc(Cl)c(Cl)c1)NC(=O)c1ccccc1
SF-268 CNS
  TGI: > 100 µM
SF-295 CNS
  TGI: > 100 µM
786-0 renal
  TGI: > 100 µM
RPMI-8226 leukemia
  TGI: > 100 µM
COLO 205 colon
  TGI: > 100 µM
SK-MEL-5 melanoma
  TGI: > 100 µM
SNB-75 CNS
  TGI: > 100 µM
OVCAR-5 ovarian
  TGI: > 100 µM
KM12 colon
  TGI: > 100 µM

## CCOC(=O)C(Cc1c[nH]c2ccc(N)cc12)(NC(C)=O)C(=O)OCC
SF-268 CNS
  GI50: > 1000 µM
  TGI: > 1000 µM
SF-295 CNS
  GI50: > 1000 µM
  TGI: > 1000 µM
786-0 renal
  GI50: > 1000 µM
  TGI: > 1000 µM
COLO 205 colon
  GI50: 849 µM
  TGI: > 1000 µM
SK-MEL-5 melanoma
  GI50: > 1000 µM
  TGI: > 1000 µM
SNB-75 CNS
  GI50: > 1000 µM
  TGI: > 1000 µM
OVCAR-5 ovarian
  GI50: > 1000 µM
  TGI: > 1000 µM
KM12 colon
  GI50: > 1000 µM
  TGI: > 1000 µM
